Here are results for 4 compounds from ChEMBL document CHEMBL5465560, “Selectivity Literature for EUbOPEN Chemogenomic Library” (2024).

In assay [1] the target is Protein-tyrosine kinase 2-beta (Homo sapiens) (UniProt Q14289). The assay can be described thus: Selectivity interaction (KinomeScan (DiscoverX)) EUB0000666a PTK2B. Conditions: at 10 µM.
Assay [2] concerns the target Serine/threonine-protein kinase PLK3 (Homo sapiens, UniProt Q9H4B4). The assay is described as follows: Selectivity interaction (KinomeScan (DiscoverX)) EUB0000666a PLK3. Conditions: at 10 µM.
Assay [3] addresses T1, Activin receptor type-1 (Homo sapiens) (UniProt Q04771).
T1 sequence (whole entry): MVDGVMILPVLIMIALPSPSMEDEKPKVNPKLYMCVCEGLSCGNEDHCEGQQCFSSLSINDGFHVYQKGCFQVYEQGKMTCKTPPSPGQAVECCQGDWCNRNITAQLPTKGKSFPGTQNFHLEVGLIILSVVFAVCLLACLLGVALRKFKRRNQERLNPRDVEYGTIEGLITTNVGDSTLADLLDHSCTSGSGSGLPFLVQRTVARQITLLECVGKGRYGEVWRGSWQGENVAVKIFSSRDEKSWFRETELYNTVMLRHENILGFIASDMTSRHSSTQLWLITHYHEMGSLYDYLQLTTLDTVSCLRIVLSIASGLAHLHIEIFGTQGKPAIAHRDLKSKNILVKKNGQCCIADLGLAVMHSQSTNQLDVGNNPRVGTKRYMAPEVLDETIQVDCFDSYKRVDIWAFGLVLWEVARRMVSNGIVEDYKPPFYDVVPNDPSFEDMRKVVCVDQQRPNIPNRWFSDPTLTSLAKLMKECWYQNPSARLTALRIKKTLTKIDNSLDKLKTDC
The assay is described as follows: (§1) Selectivity interaction (LanthaScreen Eu Kinase Binding Assay) EUB0001632a ACVR1. As to conditions: at 10 µM.

Assay [4] has as its system Activin receptor type-1 (Homo sapiens), Q04771 [R206H]. The assay is described as §1. As to conditions: at 10 µM.
In assay [5] the target is T2, Dual specificity mitogen-activated protein kinase kinase 4 (Homo sapiens) (UniProt P45985).
T2 sequence (whole entry): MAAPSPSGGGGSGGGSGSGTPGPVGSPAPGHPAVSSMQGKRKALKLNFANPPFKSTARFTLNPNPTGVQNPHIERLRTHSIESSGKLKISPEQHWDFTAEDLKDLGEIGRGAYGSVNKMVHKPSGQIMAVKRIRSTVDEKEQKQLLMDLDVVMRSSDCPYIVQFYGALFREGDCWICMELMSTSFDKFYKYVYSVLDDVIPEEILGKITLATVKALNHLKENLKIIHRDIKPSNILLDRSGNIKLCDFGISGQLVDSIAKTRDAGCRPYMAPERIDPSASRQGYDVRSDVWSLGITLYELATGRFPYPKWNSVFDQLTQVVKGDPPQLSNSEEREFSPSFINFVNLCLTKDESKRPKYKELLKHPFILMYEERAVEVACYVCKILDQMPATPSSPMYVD
The assay can be described thus: Selectivity interaction (ActivX KiNativ screen (kinase selectivity in THP-1 cell lysates)) EUB0000639a MAP2K4. As to conditions: lysate. It is filed as subcellular.

For assay [6], the target named is T3, Protein kinase C iota type (Homo sapiens) (UniProt P41743).
T3 sequence (whole entry): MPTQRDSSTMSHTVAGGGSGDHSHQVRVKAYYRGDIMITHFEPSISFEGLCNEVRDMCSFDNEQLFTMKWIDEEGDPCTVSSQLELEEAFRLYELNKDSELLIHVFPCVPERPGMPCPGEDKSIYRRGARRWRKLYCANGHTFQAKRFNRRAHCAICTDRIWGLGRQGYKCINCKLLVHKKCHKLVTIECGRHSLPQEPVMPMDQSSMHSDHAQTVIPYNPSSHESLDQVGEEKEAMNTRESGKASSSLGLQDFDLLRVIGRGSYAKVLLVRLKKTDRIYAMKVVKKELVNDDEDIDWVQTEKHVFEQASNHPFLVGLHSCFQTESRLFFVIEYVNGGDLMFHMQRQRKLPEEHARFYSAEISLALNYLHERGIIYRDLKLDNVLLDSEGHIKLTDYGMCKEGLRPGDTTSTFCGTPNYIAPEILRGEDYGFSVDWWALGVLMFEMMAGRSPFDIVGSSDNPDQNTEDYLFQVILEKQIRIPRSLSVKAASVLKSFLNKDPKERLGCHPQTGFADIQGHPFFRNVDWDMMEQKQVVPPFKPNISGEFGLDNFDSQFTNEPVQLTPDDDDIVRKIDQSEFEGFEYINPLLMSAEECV
The assay can be described thus: Selectivity interaction (ActivX KiNativ screen (kinase selectivity in THP-1 cell lysates)) EUB0000639a PRKCI. It is filed as subcellular. Conditions: lysate, at 0.04 µM.

Assay [7] has as its target T4, Serine/threonine-protein kinase ULK1 (Homo sapiens) (UniProt O75385).
T4 sequence (whole entry): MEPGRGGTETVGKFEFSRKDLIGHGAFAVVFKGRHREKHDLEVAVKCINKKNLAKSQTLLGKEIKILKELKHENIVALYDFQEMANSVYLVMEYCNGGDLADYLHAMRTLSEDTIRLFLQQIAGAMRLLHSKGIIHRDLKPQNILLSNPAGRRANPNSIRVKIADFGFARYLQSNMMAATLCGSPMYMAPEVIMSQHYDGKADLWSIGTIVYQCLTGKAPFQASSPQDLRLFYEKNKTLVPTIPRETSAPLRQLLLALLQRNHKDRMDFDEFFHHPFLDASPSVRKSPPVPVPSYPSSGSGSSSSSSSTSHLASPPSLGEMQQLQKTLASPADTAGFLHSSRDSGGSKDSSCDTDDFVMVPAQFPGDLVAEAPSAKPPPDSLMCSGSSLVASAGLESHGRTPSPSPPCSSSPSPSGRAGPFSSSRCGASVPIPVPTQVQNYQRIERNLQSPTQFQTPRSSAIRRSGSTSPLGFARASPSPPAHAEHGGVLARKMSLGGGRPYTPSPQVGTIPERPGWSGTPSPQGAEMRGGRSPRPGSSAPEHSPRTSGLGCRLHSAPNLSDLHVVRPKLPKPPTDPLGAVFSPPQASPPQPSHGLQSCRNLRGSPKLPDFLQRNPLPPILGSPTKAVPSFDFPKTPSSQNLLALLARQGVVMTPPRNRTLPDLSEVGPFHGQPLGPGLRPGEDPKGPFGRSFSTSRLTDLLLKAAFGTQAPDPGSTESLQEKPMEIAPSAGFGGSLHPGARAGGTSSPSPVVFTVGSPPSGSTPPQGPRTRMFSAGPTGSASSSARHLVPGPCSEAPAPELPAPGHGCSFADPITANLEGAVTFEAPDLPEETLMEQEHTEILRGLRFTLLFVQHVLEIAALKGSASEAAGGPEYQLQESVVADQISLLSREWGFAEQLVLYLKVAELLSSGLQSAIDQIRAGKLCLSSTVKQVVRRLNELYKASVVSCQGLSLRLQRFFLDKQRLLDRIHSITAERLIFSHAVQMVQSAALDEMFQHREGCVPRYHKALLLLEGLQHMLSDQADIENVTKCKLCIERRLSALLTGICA
The assay is described as follows: Selectivity interaction (ActivX KiNativ screen (kinase selectivity in THP-1 cell lysates)) EUB0000639a ULK1. It is filed as subcellular. Conditions: lysate, at 5 µM.

Assay [8] addresses PH-interacting protein (Homo sapiens) (UniProt Q8WWQ0). The assay is described as follows: Selectivity interaction (Human bromodomain panel (DSF assay)) EUB0000233b PHIP. A general note: Differential scanning fluorimetry follows unfolding on heating by fluorescence.

Protein-tyrosine kinase 2-beta (Homo sapiens), sequence (Q14289 whole entry, looked up): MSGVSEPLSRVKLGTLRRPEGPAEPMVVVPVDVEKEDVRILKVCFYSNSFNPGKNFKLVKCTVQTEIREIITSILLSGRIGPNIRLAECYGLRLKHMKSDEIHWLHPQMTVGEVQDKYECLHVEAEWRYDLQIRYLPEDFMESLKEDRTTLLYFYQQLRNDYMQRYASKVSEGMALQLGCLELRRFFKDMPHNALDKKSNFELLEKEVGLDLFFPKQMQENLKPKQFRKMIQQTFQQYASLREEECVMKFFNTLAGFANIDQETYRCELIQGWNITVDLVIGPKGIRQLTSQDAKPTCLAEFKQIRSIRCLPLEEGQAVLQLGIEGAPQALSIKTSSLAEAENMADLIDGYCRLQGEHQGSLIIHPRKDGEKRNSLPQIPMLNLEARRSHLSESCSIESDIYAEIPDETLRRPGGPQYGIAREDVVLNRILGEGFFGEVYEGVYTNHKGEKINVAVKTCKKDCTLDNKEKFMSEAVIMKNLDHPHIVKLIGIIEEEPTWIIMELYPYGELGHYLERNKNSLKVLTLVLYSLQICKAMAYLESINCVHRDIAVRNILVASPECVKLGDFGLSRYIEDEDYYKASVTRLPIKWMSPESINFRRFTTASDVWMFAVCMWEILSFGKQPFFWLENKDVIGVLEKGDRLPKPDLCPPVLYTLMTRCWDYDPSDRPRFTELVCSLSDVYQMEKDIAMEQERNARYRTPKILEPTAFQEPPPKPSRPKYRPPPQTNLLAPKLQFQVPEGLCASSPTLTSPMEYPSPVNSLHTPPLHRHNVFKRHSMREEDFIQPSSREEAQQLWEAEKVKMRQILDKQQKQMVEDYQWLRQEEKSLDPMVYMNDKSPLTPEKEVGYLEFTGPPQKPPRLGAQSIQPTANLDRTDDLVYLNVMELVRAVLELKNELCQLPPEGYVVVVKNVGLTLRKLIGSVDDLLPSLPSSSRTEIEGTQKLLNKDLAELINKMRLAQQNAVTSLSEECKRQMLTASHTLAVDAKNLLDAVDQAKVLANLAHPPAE
Serine/threonine-protein kinase PLK3, sequence (Q9H4B4 whole entry, looked up): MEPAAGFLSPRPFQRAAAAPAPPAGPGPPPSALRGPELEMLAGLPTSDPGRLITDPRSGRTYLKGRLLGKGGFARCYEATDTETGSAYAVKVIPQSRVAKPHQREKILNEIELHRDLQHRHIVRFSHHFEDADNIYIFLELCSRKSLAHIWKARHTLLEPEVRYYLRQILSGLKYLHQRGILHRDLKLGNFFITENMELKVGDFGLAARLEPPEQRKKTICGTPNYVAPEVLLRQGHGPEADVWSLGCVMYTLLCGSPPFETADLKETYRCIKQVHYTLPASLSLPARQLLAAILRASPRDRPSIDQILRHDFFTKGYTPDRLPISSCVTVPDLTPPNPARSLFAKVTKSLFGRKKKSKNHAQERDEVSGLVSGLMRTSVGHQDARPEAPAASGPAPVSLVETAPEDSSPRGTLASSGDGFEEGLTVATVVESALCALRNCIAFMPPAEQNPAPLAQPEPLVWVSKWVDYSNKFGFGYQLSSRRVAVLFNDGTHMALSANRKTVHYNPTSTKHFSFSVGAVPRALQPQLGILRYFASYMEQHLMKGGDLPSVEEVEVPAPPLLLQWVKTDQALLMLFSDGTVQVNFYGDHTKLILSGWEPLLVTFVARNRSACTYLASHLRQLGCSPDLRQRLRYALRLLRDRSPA
Activin receptor type-1 (Homo sapiens), Q04771 [R206H], sequence (Q04771 whole entry R206H): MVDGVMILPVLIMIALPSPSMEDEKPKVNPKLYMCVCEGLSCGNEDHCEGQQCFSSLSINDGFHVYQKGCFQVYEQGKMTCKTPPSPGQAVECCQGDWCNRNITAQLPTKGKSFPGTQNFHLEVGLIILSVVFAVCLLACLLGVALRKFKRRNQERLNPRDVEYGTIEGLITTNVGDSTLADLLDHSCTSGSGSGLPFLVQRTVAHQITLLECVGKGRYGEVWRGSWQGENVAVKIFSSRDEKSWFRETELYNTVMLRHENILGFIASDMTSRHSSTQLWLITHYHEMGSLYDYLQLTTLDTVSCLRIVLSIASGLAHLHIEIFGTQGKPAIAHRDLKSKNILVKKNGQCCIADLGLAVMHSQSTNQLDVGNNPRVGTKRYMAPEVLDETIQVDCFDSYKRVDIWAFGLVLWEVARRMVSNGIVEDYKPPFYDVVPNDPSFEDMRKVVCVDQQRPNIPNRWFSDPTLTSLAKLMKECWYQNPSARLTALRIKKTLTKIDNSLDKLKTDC

As to `O=C(NOC[C@H](O)CO)c1ccc(F)c(F)c1Nc1ccc(I)cc1F`, the figures for the % of control in assay [1] and in assay [2] were 98% and 100%, respectively.
With `Cn1cc(-n2cnc3c(NCc4nc5cc(Cl)c(Cl)cc5[nH]4)nc(N4CCOCC4)nc32)cn1`, the % of inhibition in assay [3] is -2.09%; in assay [4], -125%.
With `CC[C@@H]1[C@H](F)C(=O)N[C@@H]1COc1nccc2cc(C(N)=O)c(OC)cc12` [ZIMLOVISERTIB], the % of inhibition in assay [5] (at 0.01 µM) was -9.4%; in assay [5] (at 0.04 µM) it was -17.8%; in assay [5] (at 0.2 µM), 0.7%; in assay [5] (at 1 µM) it was 17.6%; in assay [5] (at 5 µM) it was 56.2%; in assay [6] it was -0.9%. Besides, the % of inhibition in assay [7] was -74.1%.
In assay [8], `CN(C)CCCOc1ccc(-c2cc(NCCCn3cccn3)nc(S(C)(=O)=O)n2)cc1` registered a dTM of less than 2 K.
